Test results published in article PMC4222540 (Biochemistry, 2014).
Residue numbers refer to the chain shown, from its start.

Assays:
[1] = target: T1, cPAH D139A (Chromobacterium violaceum, UniProt P30967, D139A); experiment: ITC, L-Phe binding to iron-reconstituted enzyme with excess BH4
T1 sequence (P30967 1-297 D139A): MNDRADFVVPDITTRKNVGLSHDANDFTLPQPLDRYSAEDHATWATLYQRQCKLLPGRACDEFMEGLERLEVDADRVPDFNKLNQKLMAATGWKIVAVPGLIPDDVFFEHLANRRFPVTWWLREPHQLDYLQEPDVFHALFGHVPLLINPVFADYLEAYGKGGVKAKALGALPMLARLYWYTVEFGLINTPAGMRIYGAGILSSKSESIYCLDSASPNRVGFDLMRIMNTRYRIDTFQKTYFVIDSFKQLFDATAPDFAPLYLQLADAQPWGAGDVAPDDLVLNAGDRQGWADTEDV

[2] = target: T1, cPAH D139A; experiment: Steady-state kinetics of phenylalanine hydroxylation; format: biochemical
[3] = target: T2, cPAH D139N (Chromobacterium violaceum, UniProt P30967, D139N); experiment: as above; format: biochemical
T2 sequence (P30967 1-297 D139N): T1 sequence (P30967 1-297 D139A) with A139N

[4] = target: T2, cPAH D139N; experiment: ITC, L-Phe binding to iron-reconstituted enzyme with excess BH4
[5] = target: T3, wild-type cPAH (Chromobacterium violaceum, UniProt P30967); details: cited from earlier work
T3 sequence (P30967 1-297): T1 sequence (P30967 1-297 D139A) with A139D

[6] = target: T4, cPAH D139E (Chromobacterium violaceum, UniProt P30967, D139E); experiment: Steady-state kinetics of phenylalanine hydroxylation; format: biochemical
T4 sequence (P30967 1-297 D139E): T1 sequence (P30967 1-297 D139A) with A139E

[7] = target: T4, cPAH D139E; experiment: ITC, L-Phe binding to iron-reconstituted enzyme with excess BH4
[8] = target: T5, cPAH D139K (Chromobacterium violaceum, UniProt P30967, D139K); experiment: as above
T5 sequence (P30967 1-297 D139K): T1 sequence (P30967 1-297 D139A) with A139K

[9] = D139A, 1 mM Phe into 50 μM protein, 50 μM FeSO4, 200 μM BH4, anaerobic, 25 °C
[10] = D139N, 1 mM Phe into 50 μM protein, 50 μM FeSO4, 200 μM BH4, anaerobic, 25 °C
[11] = D139E, 1 mM Phe into 50 μM protein, 50 μM FeSO4, 200 μM BH4, anaerobic, 25 °C
[12] = D139K, 1 mM Phe into 50 μM protein, 50 μM FeSO4, 200 μM BH4, anaerobic, 25 °C

In the case of `N[C@@H](Cc1ccccc1)C(=O)O` [L-Phe, phenylalanine], the Kd [1] is reported as 39 ± 12 µM, the “N (ITC stoichiometry)” value [1, 9] is reported as 1 and the ΔH [1, 9] is reported as “–10.5 ± 1.9 kcal mol^–1”. The ΔS [1, 9] was “–15 cal mol^–1”, the “fold decrease in kcat/KM for phenylalanine vs wild type” value (“fold decrease in kcat/KM” below) [2] was 81 fold and the “fold decrease in kcat/KM” value [3] was 17 fold. The Kd [4] was 37 ± 3.7 µM, the “N (ITC stoichiometry)” value [4, 10] was 0.9 and the ΔH [4, 10] was “–8.5 ± 0.7 kcal mol^–1”. The ΔS [4, 10] was “–8 cal mol^–1”, the Kd [5] was 37 ± 0.3 µM and the “N (ITC stoichiometry)” value [5] was 0.8. For the same molecule, the ΔH [5] was “–7.9 ± 0.8 kcal mol^–1”, the ΔS [5] was “–6 cal mol^–1” and the “fold decrease in kcat/KM” value [6] was 7 fold. The Kd [7] was 55 ± 18 µM, the “N (ITC stoichiometry)” value [7, 11] was 0.6 and the ΔH [7, 11] was “–13.2 ± 6.0 kcal mol^–1”. The ΔS [7, 11] was “–25 cal mol^–1”, the Kd [8] was 31 ± 5 µM and the “N (ITC stoichiometry)” value [8, 12] was 0.8. The ΔH [8, 12] was “–9.4 ± 1.3 kcal mol^–1” and the ΔS [8, 12] was “–11 cal mol^–1”.
